# In patent US20180147183A1, “USE OF R-OXIRACETAM IN PHARMACEUTICAL FIELD” (Chongqing Runze Pharmaceutical Co., Ltd., priority 2015, published 2018):
# Values joined by “and” are separate entries in the source; they are usually repeats but may differ in a detail not shown here. Equal values may be shown once. Marks after values point to notes of the source that are not given here.
# Key:
# [1] = test system: lithium chloride-pilocarpine epilepsy model rat; experiment: Lithium chloride-pilocarpine rat epilepsy model, prophylactic administration; type: in vivo, SD rats; details: 120 mg/kg for 7 days before modeling, 10 rats
# Text: Stages: epileptic seizures evaluation are categorized by Racine Stages
# Stage 0: no signs of any seizure;
# Stage I: staring, head and face slightly trembling;
# Stage II: head nodding or wet dog-like shaking;
# Stage III: forelimb limit convulsions;
# Stage IV: full-body ankylosing convulsions with a standing hind limb;
# Stage V: full-body ankylosing clonic seizures with standing with fell;
# Partial epilepsy seizure occurs when any one of Stage Ito Stage III appears;
# Generalized epilepsy seizure occurs when Stage IV or Stage V appears;
# Status epilepticus (SE) occurs when Stage IV or Stage V lasts 30 minutes.
# The rat epilepsy models were treated with lithium chloride-pilocarpine and used levetiracetam as positive control. The duration of acute seizures of lithium chloride-pilocarpine epilepsy model rat was selected as the observation time, and prophylactic administration was used.
# Animals were randomly divided into 4 groups, 10/group. Levetiracetam was selected as a positive control, 1.5 times of clinical dose were chosen, that is, 150 mg/kg. The clinical dose of an adult is 800 mg/times, twice daily, that is, 1600 mg/60 kg, 26.7 mg/kg. The dose of a rat is converted to 160 mg/kg according to body surface area. R-oxiracetam and levorotatory oxiracetam were selected half of the dose, that is, 80 mg/kg, and 1.5 times is 120 mg/kg. The dose was 1 ml/100 g, and the rats were treated with continuous administration for 7 days. As levetiracetam administration of 1.3 h (80 min), the plasma concentration peak, so we choose the last 80 minutes after the last administration of modeling. As administration of levetiracetam for 1.3 h (80 min), the plasma concentration peak was reached, so each group was selected after the last 80 minutes after the start of modeling.
# Modeling method: After several previous test, the following modeling method was chosen: Animal ip. Lithium chloride 3 mmol/kg (1.5 ml/L) 127 mg/kg (12.7 mg/ml, 1 ml/100 g body weight), 24 h, 37.5 mg/kg pilocarpine three times ip. mg/kg (2.5 mg/ml, 0.5 ml/100 g body weight) at intervals of 10 minutes. […]
# [2] = Pharmacokinetics and bioavailability in dogs, plasma determined by LC-MS; type: in vivo, dog
# Experimental: A. The Pharmacokinetics of R-Oxiracetam In Vivo and Studies of Bioavailability
# 4 Determination Methods of Oxiracetam and R-Oxiracetam in Plasma by LC-MS
# 4.1 Chromatographic Conditions
# Mobile phase: methanol: water (5:95)
# Column: ZORBAX SB-Aq (2.1×100 mm 3.5μ)
# Column temperature: 30° C.;
# Injection volume: […] 4.2 Mass Spectrometry Detection Parameters
# Mass spectrometry ionization method: electrospray ionization (ESI); ion polarity Positive; scanning mode for multiple reactions monitoring (MRM); scanning time of 100 ms. The ionic reactions used for quantitative analysis were m/z (oxiracetam) m/z 159.0→m/z 113.9 and m/z 143.1→m/z 126.0 (piracetam), respectively.
# 20 μL of the drug-containing the plasma sample is taken in a 1.5 mL Eppendorf tube. 20 μL of piracetam (20 μg/mL) of the internal standard solution is added, and mixed by the vortex mixer for 30s. Then, 500 μL of acetonitrile is added thereto, vortex shaken for 5 min and centrifugated at 16000 rpm for 10 min. The supernatant from the centrifugation was passed through 1 ml of SPE C 18E column and the filtrate was collected, put into 38° C. constant temperature water bath and dried by nitrogen gas. 300 μL of mobile phase was dissolved and the injection volume was 10 μL.
# 20 μL of blank dog plasma was added into the working solution prepared from the oxiracetam standard. The concentrations of oxiracetam in the plasma were 0.167, 0.33, 0.37, 1.33, 2.67, 4.0, 6.67, 13.33 and 26.67 μg/mL, respectively. A sample was made for each concentration respectively according to the procedures“4.4 Extraction of plasma samples”. The ratio of the peak area (As) of oxiracetam to the peak area (Ai) of the internal standard piracetam (f=As/Ai) were calculated, and perform linear regression using the concentration (C) to the ratio (f). The weight parameter 1/x, and the oxiracetam regression equation: y=5.2117X−0.76985 (r=0.9970, weight 1/x).
# 20 μL of blank dog plasma was added into the working solution prepared from the R-oxiracetam standard. The concentrations of R-oxiracetam in the plasma were 0.167, 0.33, 0.37, 1.33, 2.67, 4.0, 6.67, 13.33 and 26.67 μg/mL, respectively. A sample was made for each concentration respectively according to the procedures “4.4 Extraction of plasma samples”. The ratio of the peak area (As) of R-oxiracetam to the peak area (Ai) of the internal standard piracetam (f=As/Ai) were calculated, and perform linear regression using the concentration (C) to the ratio (f). The weight parameter 1/x, and the oxiracetam regression equation: y=1.6811X−0.031244(r=0.9949, weight 1/x).
compound,measurement,setting,value
"NC(=O)CN1C[C@H](O)CC1=O [R-oxiracetam, (R)-4-hydroxy-2-oxo-1-pyrrolidineacetamide]",Latency Stage I,[1],19.6 ± 4.4 min
same,Latency Stage II,[1],34.7 ± 15.2 min
same,Latency Stage III,[1],40.2 ± 12.1 min
same,Latency Stage IV,[1],35.0 ± 2.8 min
same,Latency Stage V,[1],38.0 ± 2.8 min
same,Number of Deaths,[1],1
same,Number of SE Animals,[1],2
same,Number of seizures Stage I,[1],2.3 ± 1.2 times
same,Number of seizures Stage II,[1],6.8 ± 3.7 times
same,Number of seizures Stage III,[1],6.4 ± 3.6 times
same,Occurrence rate Stage I,[1],10%
same,Occurrence rate Stage II,[1],10%
same,Occurrence rate Stage III,[1],5%
same,Occurrence rate Stage IV,[1],2* %
same,Occurrence rate Stage V,[1],2%
same,duration Stage IV,[1],10.0 ± 1.4 min
same,duration Stage V,[1],26.5 ± 0.7 min
same,number of animals having stage IV,[1]; P<0.05 vs model control,20%
same,mortality rate,[1]; within 1 to 7 days after modeling,10%
same,Concentration in dog blood C,"[2]; Time 0 h, individual dogs, one table per dog",0 ng/mL
same,Concentration in dog blood C,"[2]; Time 0.5 h, individual dogs, one table per dog",30410 ng/mL and 9013 ng/mL and 51070 ng/mL and 7637 ng/mL and 33000 ng/mL and 74670 ng/mL
same,Concentration in dog blood C,"[2]; Time 1 h, individual dogs, one table per dog",50870.6 ng/mL and 35550 ng/mL and 70640 ng/mL and 48190 ng/mL and 54750 ng/mL and 112164.2 ng/mL
same,Concentration in dog blood C,"[2]; Time 1.5 h, individual dogs, one table per dog",110222.9 ng/mL and 37880 ng/mL and 76280 ng/mL and 74560 ng/mL and 61910 ng/mL and 58530 ng/mL
same,Concentration in dog blood C,"[2]; Time 6 h, individual dogs, one table per dog",7637 ng/mL and 14070 ng/mL and 12210 ng/mL and 4648 ng/mL and 10140 ng/mL and 4409 ng/mL
same,Concentration in dog blood C,"[2]; Time 8 h, individual dogs, one table per dog",3684 ng/mL and 4731 ng/mL and 9036 ng/mL and 2318 ng/mL and 4967 ng/mL and 2215 ng/mL
same,Concentration in dog blood C,"[2]; Time 12 h, individual dogs, one table per dog",1610 ng/mL and 1913 ng/mL and 2205 ng/mL and 1461.5 ng/mL and 3568 ng/mL and 1333 ng/mL
same,Concentration in dog blood C,"[2]; Time 24 h, individual dogs, one table per dog",0 ng/mL
same,concentration at 0 h,"[2]; dog, plasma, Time 0 h, individual dogs, one table per dog, read-out: Concentration in dog blood C",0 ng/mL
same,concentration at 4 h,"[2]; dog, plasma, Time 4 h, individual dogs, one table per dog, read-out: Concentration in dog blood C",18400 ng/mL
same,concentration at 24 h,"[2]; dog, plasma, Time 24 h, individual dogs, one table per dog, read-out: Concentration in dog blood C",0 ng/mL
same,Cmax,"[2]; dog, plasma, dogs, mean ± SD",85800 ± 20000 ng/mL
same,Tmax,"[2]; dog, plasma, dogs, mean ± SD",2.04 ± 0.401 h
same,bioavailability,"[2]; dog, plasma, dogs, with oxiracetam as a reference, read-out: relative bioavailability",112 ± 11.6%
